Here are results for two compounds from patent US11795196B2, “Mitochondria-targeting peptides” (Stealth BioTherapeutics Corp., priority 2017, dated 2023).

Test [1] in a line: 3H D-Arg-DMT-Lys-Phe-NH2 displacement filtration binding assay. Conditions: rat heart homogenate, 3H D-Arg-DMT-Lys-Phe-NH2 6-8 nM; range the pharmacological standard had to stay in (quality control). Here is the method:
1) Radioligand Displacement Methods and Procedures
1.1 Rat Heart Homogenate Preparation
Aptuit is committed to the highest standards of animal welfare and is subject to legislation under the Italian Legislative Decree no. 26/2014. All studies were conducted in accordance with national legislation and under authorization issued by the Italian Ministry of Health. The rat heart homogenate aliquots were prepared according to the following procedure. Hearts from 20 Sprague Dawley male rats were dissected out and quickly frozen at −80° C. On the day of homogenate preparation, hearts were thawed at 4° C. Groups of 2 hearts in 2 volumes of ice cold 20 mM HEPES, 1 mM EDTA, pH 7.4 buffer were homogenized with the GentleMACS dissociator (Miltenyi Biotec) using the D02 protocol. The final suspension of 20 hearts was divided in 4 aliquots with additional ice cold buffer up to 200 mL for each tube, homogenized with a Polytron and centrifuged at 24,000g for 40 min at 4° C. (T21 Sorvall, Rotor SL0250T, 13,500 rpm). For each tube, the supernatant was discarded, and the pellet resuspended with 100 mL of ice cold buffer, homogenized and centrifuged. This step was repeated twice. The final pellets were collected together in one tube with 70 mL of buffer. […] The protein content, measured with the Bradford (Bio-Rad) method using BSA as standard was 6.15 mg/mL. […]

For test [2], the system named is rat. Nature of the test: Rat Myocardial Infarction Model. In kind it is in vivo. Conditions: s.c. 2×2 mg/kg, 30 min before ischemia and 5 min before reperfusion, 30 min LAD occlusion, 24 hours post-reperfusion, n=8. Here is the method: The Rat Myocardial Infarction Model was performed by IPST Therapeutique Inc, Sherbrooke, Quebec, Canada. The animals were randomized in terms of even distribution between treatment groups based on their body weight by the Study Director with the aim of scheduling animal from each treatment group for each day of surgery (when possible). • 1) Sham group: size of the group: n=2. Route of administration: n/a; • 2) Vehicle group: size of the group: n=8. Route of administration: s.c.; • 3) Testing article group: size of the group: n=8. Route of administration: s.c.; Treatment dose: 2×2 mg/kg, 30 min before ischemia and 5 min before reperfusion. Experimental Procedures Study Design • 1) On the day of the surgery, the rat will be anaesthetized with a mixture of 2 to 2.5%. isoflurane USP (Abbot Laboratories, Montreal Canada) in oxygen, and placed on a heating pad to maintain body temperature. • 2) The animal will be intubated and immediately ventilated by means of a positive-pressure rodent respirator set at 10 mL/kg bodyweight at a frequency of 65-70 strokes/min. • 3) A baseline blood sample (1 mL) will be taken from the jugular vein for baseline biomarkers quantification. The blood will be collected in lithium heparin microtainers and centrifuged at 3000 rpm, at 4±2° C. for 10 minutes. The plasma will be aliquoted in 2 samples of equal volume (approximately 250 μL). […] A 1 mL blood sample will be taken from the jugular vein, for 24 hrs biomarkers quantification. • 11) The heart will be excised and mounted into a Langendorff apparatus. […]

In test [3] the test system is isolated rat hearts. Nature of the test: Ischemia-reperfusion injury, Langendorff isolated heart preparation. The following applies: 30 min LAD occlusion + 120 min reperfusion, compound 1 μM in perfusion solution, mean.
For test [4], the system named is rat. Nature of the test: Rat Acute Kidney Injury (AKI) Model, renal ischemia-reperfusion. In kind it is in vivo. Details: concentration or dose not given beside the values. The following applies: 30 minutes renal artery occlusion of both kidneys, 24 hours after reperfusion, relative to vehicle. Here is the method: The Rat Acute Kidney Injury (AKI) Model was performed by IPST Therapeutique Inc, Sherbrooke, Quebec, Canada. The animals were randomized in terms of even distribution between treatment groups based on their body weight by the Study Director with the aim of scheduling animal from each group at each day of surgery. The rats will be given free access to food and water. Experimental Procedures Induction of Ischemia-Reperfusion • 1. Rats will be anaesthetized with isoflurane USP (Abbot Laboratories, Montreal Canada) 2% in oxygen and placed on a heated pad to maintain body temperature. The ECG and oxygen saturation will be monitored for the entire surgical process. The body temperature will be monitored with a probe thermometer introduced into the abdomen, very close to the kidneys. • 2. A 1 mL blood draw will be taken from the jugular vein. The blood will be collected into lithium heparin tubes and centrifuged at 3000 rpm for 10 min. to obtain the plasma. The plasma will be separated into 200 μL aliquot and stored at −20° C. until dosage of biomarkers. • 3. The abdomen will be disinfected with providone iodine and alaparotomy will be performed. • 4. The kidneys will be exposed and a temporary suture will be placed around renal artery of the two kidneys. Renal ischemia will be visually confirmed by a gradual changed of the kidneys colour going from red to dark purple within a couple of minutes following the start of the ischemia. During the ischemia, the kidneys will be kept moist and warm using a heat lamp and sterile gauze soaked in warm (37° C.) saline. The temperature will be monitored with a probe thermometer introduced into the abdomen, very close to the kidneys. • 5. After 30 minutes of occlusion, the suture will be removed. • 6. The abdominal wounds will be closed with 4-0 silk suture, and the animal will be return to its cage. • 7. Twenty-four hours after reperfusion the rats will be re-anesthetized. A second blood draw will be taken as was done before the ischemia. • 8. Sham will be treated under same conditions as vehicle, except, kidneys will not be subjected to ischemic conditions. Detection of Biomarkers A 200 μL aliquot of plasma sample will be taken before the ischemia and 24 hours following the ischemia; both will be sent to the clinical laboratory of the CHUS (Centre Hospitalier Universitaire de Sherbrooke, Quebec, Canada) for detection of plasma level of creatinine (p.Cr) and Blood Urea Nitrogen (BUN). Computer Systems The following are the validated computer systems to be used during the conduct of this study. The analysis software will be Microsoft Office Excel 2007 installed on networked personal computers running Microsoft Windows8, XP Professional or Vista. Data Analysis Values are presented as means±SEM (standard error of the means) and presented by the symbol+on the graph. Repeat un-paired Student's t-tests were performed in Microsoft Excel 2007 on all experimental data. Differences were considered significant when p≤ 0.05. The vehicle group was compared to the sham group while the test article was compared to the vehicle group. The plasma creatinine post-UR (% mean of vehicle) was calculated using the following formula:
[formula] Where: p.Cr=Plasma creatinine Mean Δ plasma creatinine in sham group=Mean (plasma creatinine 24 h post-isch.−plasma creatinine pre-isch.) in sham group Mean Δ plasma creatinine in vehicle group=Mean ((plasma creatinine 24 h post-inch.−plasma creatinine pre-isch.)−Mean Δ plasma creatinine in sham group) in vehicle group The BUN post-I/R (% mean of vehicle) was calculated using the following formula:
[formula] […]

On to D-Arg-DMT-Lys-Phe-NH2 [SBT-031], for which the “pIC50, high affinity value of the unlabeled SBT-031 displacement curve” value in test [1] worked out at 7.6±0.5.
For `Cc1cc(O)cc(C)c1C[C@H](NC(=O)[C@H](N)CCCNC(=N)N)C(=O)N[C@@H](CCCCN)c1nc(Cc2ccccc2)no1` [Example 31, (R)-2-amino-N-((S)-1-(((S)-5-amino-1-(3-benzyl-1,2,4-oxadiazol-5-yl)pentyl)amino)-3-(4-hydroxy-2,6-dimethylphenyl)-1-oxopropan-2-yl)-5-guanidinopentanamide], in test [2], the “Infarct size (%), Mean” value amounted to 16.4%. The “Infarct size, % of area at risk” value in test [3] is 35%. The “White Necrotic Area, % of area at risk” value in test [3] (only white necrotic tissue) was 22%. Further, in test [4], the “BUN, % Protection, Mean” value is reported as 81.4% and the “Plasma Creatinine, % Protection, Mean” value is 86.2%.
